Reference: patent US12226405B2, “Compounds and compositions for inhibiting the activity of HIF2-alpha and their methods of use” (Novartis AG, priority 2020, dated 2025)

Key:
[1] = target: HIF2α PAS-B domain (236-350, biotinylated on the N-terminus) (Homo sapiens (Human), UniProt Q99814)
Method: The assay buffer contained 50 mM Tris-HCl pH7 (Sigma), 20 mM NaCl (Fluka), 0.02% BSA (Sigma), 0.005% Triton X-100 (Pierce) and 1 mM DTT (Fluka). After a 30 min incubation period, 5 μL Streptavidin PVT SPA Beads (Perkin Elmer) at 1.2 mg/mL, diluted in the buffer, were added.

[2] = test system: HIF2α-dependent transcription in 786-O-HRE-Luc cells; test: In vitro cellular hypoxia response element (HRE) reporter gene assay (RGA) for HIF2α; format: cell-based, human; conditions: 24 hours incubation
Method: (§1) Stock solutions of compounds were prepared at a concentration of 10 mM in DMSO and stored at 4° C. Where necessary to afford a full dose-response curve, the stock solutions were pre-diluted in DMSO to 1,000-fold the desired reduced start concentration. On the day after cell seeding, eleven 2-fold serial dilutions of each compound were dispensed directly into the cell assay plates using either HP 300D non-contact Digital Dispenser (TECAN) or a ATS100 acoustic dispenser (EDC Biosystems).
The ability of compounds to inhibit HIF2α- and HIF1α-dependent transcription was assessed in 786-O-HRE-Luc and RCC4-HRE-Luc cells, respectively. The putative unselective inhibition of firefly luciferase activity or expression was assessed in 786-O-UB6-Luc and RCC4-UB6-Luc cells, respectively. The reporter lines were generated as follows: 786-O (RRID: CVCL_1051) and RCC4 (RRID: CVCL_0498) clear cell renal carcinoma cell lines were obtained from ATCC and Celeste Simon (University of Pennsylvania), respectively. Either cell line was transduced with a lentiviral vector in which the expression of a PEST-destabilized version of firefly-luciferase is under the control of either a minimal promoter coupled to four copies of a minimal hypoxia response element (HRE) sequence (pLenti 4×HRE Luc PEST), or a promoter from the house-keeping UBC gene (pLenti UB6 Luc PEST). In short, for the construction of the pLenti 4×HRE Luc PEST vector, 4×HRE DNA oligonucleotides were synthesized, annealed and cloned into pGL4.27 plasmid vector (Promega) predigested with NheI and HindIII restriction enzymes. The sequence of the two DNA oligonucleotides was as follows: NheI 4×HRE HindIII FWD: […] (SEQ ID NO: 8); NheI 4×HRE HindIII REV […] (SEQ ID NO: 9). The 4×HRE Luc PEST fragment was then PCRed from this plasmid with restriction enzyme sites NheI and XhoI at the two ends, and inserted into pLenti6/BLOCK iT DEST (Thermo Fisher Scientific) predigested with NheI and XhoI restriction enzymes. For the construction of the pLenti UB6 Luc PEST vector, the Luc PEST sequence was PCRed from pGL4.27 (Promega) using EcoRV and XhoI restriction enzymes at the two ends, and inserted into pLenti6/UBC/V5/DEST (Thermo Fisher Scientific) predigested with the same enzymes. 786-O and RCC4 cells (300,000 per well of a 6 well plate) were infected in the presence of 10 μg/ml polybrene with lentivirus harvested two days after transfection of HEK293-FT (ThermoFisher Scientific #R70007) cells (80% confluent in a 100 cm^2 dish) with a mix of 1.5 ml OptiMEM (ThermoFisher Scientific #31985062) containing 3 μg of the desired plasmids and 9 μl of ViralPower Packaging mix (ThermoFisher Scientific #K497500), and 1.5 ml OptiMEM containing 36 μl Lipofectamine 2000 (ThermoFisher Scientific #11668019). Successfully infected cells were selected using blasticidin (Gibco #A11139-03) at a final concentration of 5 μg/ml. The resulting stable cell lines were named 786-O pLenti 4×HRE Luc PEST (short: 786-O-HRE-Luc), 786-O pLenti UB6 Luc PEST (short: 786-O-UB6-Luc), RCC4 pLenti 4×HRE Luc PEST (short: RCC4-HRE-Luc) and RCC4 pLenti UB6 Luc PEST (short: RCC4-UB6-Luc). All 4 cell lines were maintained in growth medium composed of DMEM (GIBCO #11995-065), 2 mM L-Glutamine (BioConcept #5-10K50-H), 10% fetal calf serum (Gibco #A31608-01), 1× Penicillin/Streptomycin (BioConcept #4-01F00-H), 1 mM Sodium pyruvate (BioConcept #5-60F00-H) and 5 μg/ml blasticidin (Gibco #A11139-03) at 37° C. in a humidified 5% CO2 incubator.
For the reporter gene assay, the individual cell lines were seeded at 2,500 cells/20 μL/well into white-wall, clear-bottom 384-well plates (Greiner #781098) and incubated over night at 37° C. prior to addition of serial compound dilutions as described above. […]

[3] = test system: HIF2α-regulated expression of the endogenous target gene hEGLN3 in 786-O cells; test: Cellular iScript assay for HIF2α (quantitative RT-PCR of hEGLN3); format: cell-based, human
Method: as §1
Compound-mediated modulation of the HIF2α-regulated expression of the endogenous target gene hEGLN3 (OMIM: 606426), as well as beta-actin (OMIM: 102630) as a house-keeping control, was assess in 786-O cells (RRID CVCL_1051) using a quantitative RT-PCR approach. In short, 786-O cells were maintained in growth medium composed of DMEM (GIBCO #11995-065), 2 mM L-Glutamine (BioConcept #5-10K50-H), 1× Penicillin/Streptomycin (BioConcept #4-01F00-H), 10% fetal calf serum (Gibco #A31608-01), 1 mM Sodium pyruvate (BioConcept #5-60F00-H). Cells were seeded at 1,000 cells/20 μL/well into white-wall, clear-bottom 384-well plates (Greiner #781098) and incubated over night at 37° C. prior to addition of serial compound dilutions as described above. Following incubation for 48 hours at 37° C., medium supernatant was discarded and the plate blotted dry by inverting on a tissue. The same procedure was repeated following one wash with 20 μL phosphate-buffered saline. Following addition of 25 μL/well iScript sample preparation reagent (BioRad #170-8899) using a 16-channel Matrix pipette, the plate was incubated for 2 min at room temperature. 20 μL lysate supernatant was then removed and transferred to a new 384 well plate (Costar #3656) and diluted 1:3 by adding 5 μL of the lysate to 10 μL H2O using a Bravo liquid handler (Agilent). 2 μL of the diluted lysate was added to the 8 μL of a mastermix containing 5 μL iTaq Universal Probes One-step kit (BioRad #172-5141), 0.25 μL iScript reverse transcription supermix (BioRad #1708840), 0.25 μL 40×HEX-ZEN-labeled TaqMan probe for beta-actin (IDT #Hs.PT.39a.22214847: Probe 5′ HEX-TCA TCC ATG/ZEN/GTG AGC TGG CGG-3′ (SEQ ID NO: 2) Iowa Black FQ, Primer 1: ACA GAG CCT CGC CTT TG (SEQ ID NO: 3); Primer 2: CCT TGC ACA TGC CGG (SEQ ID NO: 4) AG), 0.25 μL, 40×FAM-ZEN-labeled TaqMan probe for hEGLN3 (IDT #Hs.PT.58.189348: Probe 5′ 6-FAM-TTT GGC TTC/ZEN/TGC CCT TTC TTC AGC-3′ (SEQ ID NO: 5) Iowa Black FQ, Primer 1: CACGGTCAGTCTTCAGTGAG (SEQ ID NO: 6); Primer 2: CGCAACCAGATATGCTATGACT (SEQ ID NO: 7)), 2.25 μL RNase-free water, prelaid in a 384 well plate (ABI #4309849) using a 16-channel Matrix pipette. The plate was sealed with a PCR-compatible optical film (MicroAmp, ABI #4360954) and centrifuged (1500 rpm, 5 min, +4° C.) to collect all reagents in the bottom of the well and to remove bubbles. The plate content was amplified on a 7900HT thermal cycler (ABI) using the following conditions: Step 1: 50° C. for 10 min, Step 2: 95° C. for 3 min, Step 3 (40×): 95° C. for 15 s, 60° C. for 1 min. ROX (reaction volume 10 μL) was used as a passive reference. Data were collected with manual adjustment of the Ct threshold (beta-actin: 0.046, hEGLN3: 0.06) and were analyzed using the 2^(−ΔΔCt) method. Thus, for each sample, the following values were calculated: 2^(−Ct)a for beta-actin, 2^(−Ct)e for EGLN3, and 2^(−ΔCt) calculated as (2^(−Ct)e/2^(−Ct)a). The mean 2^(−ΔCt) as well as the corresponding standard deviation was calculated for each sample. Taking the DMSO-treated sample as a reference, the 2^(−ΔΔCt) for each sample was calculated as follows: 2^(−ΔΔCt)=2^(−ΔCt)sample/(2^(−ΔCt)DMSO). After calculating differential expression as 2^(−ΔΔCt) for each sample, it was then expressed as a percentage (×100) to obtain a dose-response curve in % of DMSO control and IC50s were calculated using a four-parametric fit model.

[4] = Homo sapiens, 786-0, 48 hours incubation

Sequence of HIF2α PAS-B domain (236-350, biotinylated on the N-terminus) (Q99814 236-350): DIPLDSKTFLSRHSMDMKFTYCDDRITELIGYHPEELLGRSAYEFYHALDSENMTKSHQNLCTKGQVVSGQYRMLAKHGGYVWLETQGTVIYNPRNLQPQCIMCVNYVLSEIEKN

SMILES	IC50 [1] [nM]	IC50 ([2]; Homo sapiens) [nM]	IC50 [3, 4] [nM]	IC50 [2] [nM]	IC50 ([3]; 48 hours incubation) [nM]
N#Cc1ccc2c(c1F)C(F)(F)CC[C@@]21CN2C=C(C(F)(F)F)C=C(OC(F)F)C2=N1 [Example 15, (S)-8-(difluoromethoxy)-4′,4′,5′-trifluoro-6-(trifluoromethyl)-3′,4′-dihydro-2′H,3H-spiro[imidazo[1,2-a]pyridine-2,1′-naphthalene]-6′-carbonitrile]	16	392	128	–	–
Fc1c(Br)ccc2c1CCC[C@@]21CN2C=C(C(F)(F)F)C=C(Cl)C2=N1 [Example 16, (S)-6′-bromo-8-chloro-5′-fluoro-6-(trifluoromethyl)-3′,4′-dihydro-2′H,3H-spiro[imidazo[1,2-a]pyridine-2,1′-naphthalene]]	≤ 6	372	43	–	–
O=C1c2c(ccc(Br)c2F)[C@]2(CN3C=C(C(F)(F)F)C=C(OC(F)F)C3=N2)CC1(F)F [Example 17, (S)-6′-bromo-8-(difluoromethoxy)-3′,3′,5′-trifluoro-6-(trifluoromethyl)-2′H,3H-spiro[imidazo[1,2-a]pyridine-2,1′-naphthalen]-4′(3′H)-one]	62	466	199	–	–
O=C1c2c(F)cccc2[C@@]2(C[C@@H]1F)CN1C=C(C(F)(F)F)C=C(OC(F)F)C1=N2 [Example 21]	36	–	–	1100	121
N#Cc1ccc2c(c1F)CCC[C@@]21CN2C=C(C(F)(F)F)C=C(OC(F)F)C2=N1 [Example 22, (S)-8-(difluoromethoxy)-5′-fluoro-6-(trifluoromethyl)-3′,4′-dihydro-2′H,3H-spiro[imidazo[1,2-a]pyridine-2,1′-naphthalene]-6′-carbonitrile]	8	185	37	–	–
Fc1cccc2c1C(F)(F)CC[C@@]21CN2C=C(C(F)(F)F)C=C(OC(F)F)C2=N1 [Example 23, (S)-8-(difluoromethoxy)-4′,4′,5′-trifluoro-6-(trifluoromethyl)-3′,4′-dihydro-2′H,3H-spiro[imidazo[1,2-a]pyridine-2,1′-naphthalene]]	4	92	30	–	–
N#Cc1ccc2c(c1F)[C@@H](F)CC[C@@]21CN2C=C(C(F)(F)F)C=C(OC(F)F)C2=N1 [Example 25, (1′S,4'S)-8-(difluoromethoxy)-4′,5′-difluoro-6-(trifluoromethyl)-3′,4′-dihydro-2′H,3H-spiro[imidazo[1,2-a]pyridine-2,1′-naphthalene]-6′-carbonitrile]	19	202	83	–	–
N#CC1=CN2C[C@@]3(CCCc4c(F)cccc43)N=C2C(OC(F)F)=C1 [Example 26, (S)-8-(difluoromethoxy)-5′-fluoro-3′,4′-dihydro-2′H,3H-spiro[imidazo[1,2-a]pyridine-2,1′-naphthalene]-6-carbonitrile]	≤ 6	144	34	–	–
[2H]C1([2H])CC[C@@]2(CN3C=C(C#N)C=C(OC(F)F)C3=N2)c2cccc(F)c21 [Example 27, d2-(S)-8-(difluoromethoxy)-5′-fluoro-3′,4′-dihydro-2′H,3H-spiro[imidazo[1,2-a]pyridine-2,1′-naphthalene]-6-carbonitrile]	12	188	102	–	–
Fc1cccc2c1CCC[C@@]21CN2C=C(C(F)(F)F)C=C(OC(F)F)C2=N1 [Example 28, (S)-8-(difluoromethoxy)-5′-fluoro-6-(trifluoromethyl)-3′,4′-dihydro-2′H,3H-spiro[imidazo[1,2-a]pyridine-2,1′-naphthalene]]	5	169	66	–	–
FC1=CC(C(F)(F)F)=CN2C[C@@]3(CCCc4c3ccc(F)c4F)N=C12 [Example 29, (S)-5′,6′,8-trifluoro-6-(trifluoromethyl)-3′,4′-dihydro-2′H,3H-spiro[imidazo[1,2-a]pyridine-2,1′-naphthalene]]	8	1310	93	–	–
